The values below come from US20180200279A1, “INHIBITION OF HSV-1-ASSOCIATED CORNEAL NEOVASCULARIZATION USING INHIBITORS OF CYCLIN-DEPENDENT KINASE 9” (XAVIER UNIVERSITY OF LOUISIANA, priority 2014, published 2018).

One series deals with HSV-1 17syn+. The series can be described thus: Real-time PCR of HSV-1 DNA on ocular swabs of infected mice. The following applies: day 25 post infection; 1% TFT, 0.01% flavopiridol, 0.1% DRB drops; n=10. Format: in vivo, Balb/c mice. Here is the method:
SYBR Green semi-quantitative real-time PCR was performed on DNA samples eluted from swabs taken from mouse eyes on days 2, 4, 7, 9, 11, 14, 18 and 25 post infection with 5×10^5 PFU/eye HSV-1 17syn+ using primers specific for HSV-1 DNA polymerase.
All experimental procedures were performed in accordance with the ARVO Resolution for the Use of Animals in Ophthalmic and Vision Research and were approved by the Xavier University Animal Care and Use Committee. Female 20 g Balb/c mice were obtained from Charles River Laboratories. Mice were allowed to equilibrate to their surroundings for 2 weeks and then were anesthetized by intramuscular administration of xylazine (6.6 mg/kg of body weight) and ketamine (100 mg/kg of body weight). The corneas were mildly scarified in a 2×2 cross-hatch pattern and each cornea was inoculated with 5×10^5 PFU of strain HSV 17syn+. […] DNA was collected by swabbing the eyes with filter paper, and the eyes were examined with a slit-lamp on PI days 2, 4, 7, 9, 11, 14, 18 and 25. Average neovascularization/eye was scored using the formula A=(C×0.4×L×π)/2 where C=clock hours of neovascularization; 30° arc is 1 (360° circle with a total of 12); L is the length of the longest neovessel, and A is the area of neovascularization. Students scored (by eye) the animals on the days indicated in a masked fashion using the slit-lamp, and images representative of each group were taken. Clinical scores based on epiphora, inflammation and discharge were calculated where 0=no manifestations, +1=slight manifestations, +2=moderate manifestations, and +3=severe manifestations. […] Ex ovo chick embryo chorioallantoic membrane collagen angiogenesis assays were performed using methods as previously described (Deryugina E I and Quigley J P. Chapter 2. Chick embryo chorioallantoic membrane models to quantify angiogenesis induced by inflammatory and tumor cells or purified effector molecules. Methods Enzymol. 444:21-41. 2008). […]

Series [1] concerns HSV-1 17syn+ ocular infection. The series can be described thus: HSV-1 ocular infection mouse model, combined clinical score (epiphora, inflammation, discharge). Format: in vivo, Balb/c mice. Conditions: 1% TFT, 0.01% flavopiridol, 0.1% DRB drops. Here is the method:
The combined clinical score was determined based on epiphora (excess tearing), inflammation and discharge. […], +1=slight manifestations, +2=moderate manifestations, and +3=severe manifestations.
(§1) All experimental procedures were performed in accordance with the ARVO Resolution for the Use of Animals in Ophthalmic and Vision Research and were approved by the Xavier University Animal Care and Use Committee. Female 20 g Balb/c mice were obtained from Charles River Laboratories. Mice were allowed to equilibrate to their surroundings for 2 weeks and then were anesthetized by intramuscular administration of xylazine (6.6 mg/kg of body weight) and ketamine (100 mg/kg of body weight). The corneas were mildly scarified in a 2×2 cross-hatch pattern and each cornea was inoculated with 5×10^5 PFU of strain HSV 17syn+. […] DNA was collected by swabbing the eyes with filter paper, and the eyes were examined with a slit-lamp on PI days 2, 4, 7, 9, 11, 14, 18 and 25. Average neovascularization/eye was scored using the formula A=(C×0.4×L×π)/2 where C=clock hours of neovascularization; 30° arc is 1 (360° circle with a total of 12); L is the length of the longest neovessel, and A is the area of neovascularization. Students scored (by eye) the animals on the days indicated in a masked fashion using the slit-lamp, and images representative of each group were taken. Clinical scores based on epiphora, inflammation and discharge were calculated where 0=no manifestations, +1=slight manifestations, +2=moderate manifestations, and +3=severe manifestations. Mice were sacrificed with CO2 on day 25 post-infection, and eyes were harvested, sectioned, stained with hematoxylin and eosin (H&E) for histological analysis based on peripheral neovascularization and leukocytic infiltration where 0=clear eyes, 0.5=either peripheral neovascularization or leukocytic infiltration, and 1=both peripheral neovascularization and leukocytic infiltration. Ex ovo chick embryo chorioallantoic membrane collagen angiogenesis assays were performed using methods as previously described (Deryugina E I and Quigley J P. Chapter 2. Chick embryo chorioallantoic membrane models to quantify angiogenesis induced by inflammatory and tumor cells or purified effector molecules. Methods Enzymol. 444:21-41. 2008). Briefly, fertilized embryos (Charles River Laboratories, Charleston, S.C.) were incubated at 37.5° C. for 3 days, removed from their shell using a Dremel tool and placed into a covered weighing boat for 7 further days of incubation. […] Four collagen onplants were added per egg on at least 3 separate eggs. After three additional days of incubation, images were taken of each plug using a mini-Vid camera (LW Scientific; Lawrenceville, Ga.) and quantified in a masked fashion based on the percentage of grids that were positive for newly formed blood vessels.
FIG. 1B is the combined clinical score for the treatment groups based on epiphora (excess tearing), inflammation, and discharge.

For series [2], the system named is HSV-1 17syn+ ocular infection. Nature of the series: HSV-1 ocular infection mouse model, H&E histology of eyes (leukocytic infiltration, peripheral neovascularization). Conditions: day 25 PI; for mouse eyes exhibiting corneal neovascularization / mouse eyes exhibiting leukocytic infiltration: H&E sections; for histological score (scale 0-1) for leukocytic infiltrate and peripheral neovascularization: H&E stained corneal sections. Format: in vivo, Balb/c mice. Here is the method: Histological score (0-1) was calculated based on leukocytic infiltration and peripheral neovascularization of hematoxylin & eosin (H&E) stained slides of mouse eyes on day 25 PI.
as §1
To confirm the results in FIGS. 1A and 1B, sections of one cornea from each mouse was sectioned, stained with H&E and analyzed for leukocytic infiltrate and peripheral neovascularization of the cornea.

Series [3] deals with HSV-1 17syn+ induced corneal neovascularization. Nature of the series: HSV-1 corneal neovascularization mouse model, slit-lamp examination score. Format: in vivo, Balb/c mice. Conditions: day 25 post infection; drops 4 times daily for 14 days; 1% TFT, 0.01% flavopiridol, 0.1% DRB; n=10. The method, then:
Corneal neovascularization was determined in a masked fashion by slit lamp analysis on days 2, 4, 7, 9, 11, 14, 18, and 25 post-infection (PI) with 5×10^5 PFU/eye of HSV-1 17syn+ using the formula A=(C×0.4×L×n)/2 where C=clock hours of neovascularization; 30° arc is 1 (360° circle with a total of 12); L is the length of the longest neovessel, and A is the area of neovascularization.
All experimental procedures were performed in accordance with the ARVO Resolution for the Use of Animals in Ophthalmic and Vision Research and were approved by the Xavier University Animal Care and Use Committee. Female 20 g Balb/c mice were obtained from Charles River Laboratories. Mice were allowed to equilibrate to their surroundings for 2 weeks and then were anesthetized by intramuscular administration of xylazine (6.6 mg/kg of body weight) and ketamine (100 mg/kg of body weight). The corneas were mildly scarified in a 2×2 cross-hatch pattern and each cornea was inoculated with 5×10^5 PFU of strain HSV 17syn+. […] Average neovascularization/eye was scored using the formula A=(C×0.4×L×π)/2 where C=clock hours of neovascularization; 30° arc is 1 (360° circle with a total of 12); L is the length of the longest neovessel, and A is the area of neovascularization. Students scored (by eye) the animals on the days indicated in a masked fashion using the slit-lamp, and images representative of each group were taken. Clinical scores based on epiphora, inflammation and discharge were calculated where 0=no manifestations, +1=slight manifestations, +2=moderate manifestations, and +3=severe manifestations. […] Ex ovo chick embryo chorioallantoic membrane collagen angiogenesis assays were performed using methods as previously described (Deryugina E I and Quigley J P. Chapter 2. Chick embryo chorioallantoic membrane models to quantify angiogenesis induced by inflammatory and tumor cells or purified effector molecules. Methods Enzymol. 444:21-41. 2008). […]
This was assessed with the dose and frequency that was used in the chemotherapeutic study of HSV-1 corneal neovascularization. […]

Series [4] can be described thus: Ocular safety and tolerability of the formulation, rabbit eyes. Type of series: in vivo. Conditions: dose and frequency of the HSV-1 corneal neovascularization study. The method, then: (§2) This was assessed with the dose and frequency that was used in the chemotherapeutic study of HSV-1 corneal neovascularization. FIG. 1A presents the results of slit-lamp examination (SLE) scores of the corneas of the four treatment groups beginning on post-inoculation day 2 and continuing to 25 days following infection.

Series [5] can be described thus: Ocular safety and tolerability of the formulation, mouse eyes. Type of series: in vivo. Conditions: dose and frequency of the HSV-1 corneal neovascularization study. The method, then: as §2
The subject of the next series is HSV-1. The series can be described thus: In vitro viral inhibition (plaque) assay in CV-1 cells. Format: cell-based. Here is the method: Numbers of plaque-forming units (PFU) were determined in a standard plaque assay procedure using CV-1 cells.
The HSV-1 strain employed was 17 syn+. Before inoculation, numbers of plaque-forming units (PFU) were determined in a standard plaque assay procedure using CV-1 cells. Pooled primary human umbilical vein endothelial cells (HUVEC) were obtained from Lonza (Basel, Switzerland) and were cultured in Medium 199 (Life Technologies, Carlsbad, Calif.) supplemented with 20% heat-inactivated FBS, penicillin G (100 U/ml), streptomycin ([…]), 2 mM L-glutamine and 1:100 endothelial cell growth supplement (ECGS, BD Biosciences, Bedford, Mass.) on tissue culture plates coated with 0.2% gelatin up to passage 6. Cells were sub-passaged or harvested when they reached ˜80% confluence. For periods of serum-deprivation, HUVEC were incubated for 4 or 16 hours in serum-starvation medium (SSM) containing Medium 199 without phenol red or ECGS but containing 0.5% FBS unless otherwise indicated. In vitro viral inhibition assays with CV-1 cells were performed as previously described (Gong E Y. Methods for screening and profiling inhibitors of herpes simplex viruses. Methods Mol Biol. 1030:303-313. 2013).

With `O=c1[nH]c(=O)n([C@H]2C[C@H](O)[C@@H](CO)O2)cc1C(F)(F)F` [TFT, triflurothymidine], the “quantitative real-time PCR score (HSV-1 DNA) on ocular swabs” value in the series on HSV-1 17syn+ amounted to 0.0±0.0. Besides, the “combined clinical score (epiphora, inflammation, discharge; 0 to +3)” value (“combined clinical score” below) in series [1] (day 11) came out at 0.002±0.41. The “combined clinical score” value in series [1] (day 25) is 0.00±0.00. Also, in series [2], the “mouse eyes exhibiting corneal neovascularization” value stood at 0%; the “mouse eyes exhibiting leukocytic infiltration” value is recorded as 30%; the “histological score (scale 0-1) for leukocytic infiltrate and peripheral neovascularization” value is recorded as 0.278±0.088. The “slit-lamp examination (SLE) score of corneal neovascularization” value in series [3] came to 0.0±0.0.
As for `OC[C@H]1O[C@@H](n2cnc3cc(Cl)c(Cl)cc32)[C@H](O)[C@@H]1O` [DRB, 5,6-Dichlorobenzimidazole-1-β-D-ribofuranoside], in the series on HSV-1 17syn+, the “quantitative real-time PCR score (HSV-1 DNA) on ocular swabs” value is listed as 0.042±0.60. In addition, the “safety and tolerability of the formulation in the eye” value in series [4] is “safe and well-tolerated”. The “safety and tolerability of the formulation in the eye” value in series [5] is “safe and well-tolerated”. Moreover, the “combined clinical score” value in series [1] (day 11) turned out to be 0.00±0.0. Also, in series [1] (day 25), the “combined clinical score” value came out at 0.042±0.60. The “concentration at which HSV-1 replication was significantly reduced” value with HSV-1 amounted to 25 µM. For the same molecule, the IC50 in the series with HSV-1 (read-out: average IC50 of HSV-1 replication) was found to be 86.7 µM. For the same molecule, in series [2], the “mouse eyes exhibiting corneal neovascularization” value is reported as 0%; the “mouse eyes exhibiting leukocytic infiltration” value is 10%; the “histological score (scale 0-1) for leukocytic infiltrate and peripheral neovascularization” value stood at 0.25±0.134. Moreover, in series [3], the “slit-lamp examination (SLE) score of corneal neovascularization” value amounted to 0.042±0.60.

As a reminder, the IC50 is the point on the concentration scale where inhibition reaches its midpoint.
